Experimental data from ChEMBL document CHEMBL1121865, “Epimeric cis-decahydroquinoline-5-carboxylic acids: effects on gamma-aminobutyric acid uptake and receptor binding in vitro” (J Med Chem, 1981).

Legend:
[1] = biological target: T1, GABA-A receptor; anion channel (Rattus norvegicus) (UniProt O09028+P15431+P18506+P18508+P19969+P20236+P23574+P23576+P28471+P28473+P30191+P62813+P63079+P63138+Q91ZM7+Q9ES14); experiment: Percent displacement of [3H]GABA at Gamma-aminobutyric acid receptor of rat brain membranes at 100 uM; type: cell membranes; conditions: Membrane
[2] = biological target: GABA transporter (Rattus norvegicus) (UniProt P31647+P23978+P31646+P48056); experiment: Percent inhibition of high affinity [3H]GABA uptake into rat brain synaptosomes at 100 uM; type: functional, subcellular
Chain of GABA transporter (Rattus norvegicus) (P31646 whole entry, looked up): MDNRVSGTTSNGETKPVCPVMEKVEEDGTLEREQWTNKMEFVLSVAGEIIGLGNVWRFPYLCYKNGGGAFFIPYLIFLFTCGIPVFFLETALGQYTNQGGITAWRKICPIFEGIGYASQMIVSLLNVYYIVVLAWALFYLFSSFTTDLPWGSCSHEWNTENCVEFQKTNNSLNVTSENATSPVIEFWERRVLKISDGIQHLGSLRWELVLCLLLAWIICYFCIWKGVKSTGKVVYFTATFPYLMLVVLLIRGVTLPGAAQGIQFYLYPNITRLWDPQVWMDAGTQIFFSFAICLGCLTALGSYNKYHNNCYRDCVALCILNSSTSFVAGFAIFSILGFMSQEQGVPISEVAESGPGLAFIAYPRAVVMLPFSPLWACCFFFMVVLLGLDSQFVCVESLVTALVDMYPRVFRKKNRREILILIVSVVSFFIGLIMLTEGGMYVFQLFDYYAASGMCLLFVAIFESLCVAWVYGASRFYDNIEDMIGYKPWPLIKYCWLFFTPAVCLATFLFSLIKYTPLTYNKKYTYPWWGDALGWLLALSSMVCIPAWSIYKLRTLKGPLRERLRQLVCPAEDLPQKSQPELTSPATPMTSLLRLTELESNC
Chain of GABA transporter (Rattus norvegicus) (P31647 whole entry, looked up): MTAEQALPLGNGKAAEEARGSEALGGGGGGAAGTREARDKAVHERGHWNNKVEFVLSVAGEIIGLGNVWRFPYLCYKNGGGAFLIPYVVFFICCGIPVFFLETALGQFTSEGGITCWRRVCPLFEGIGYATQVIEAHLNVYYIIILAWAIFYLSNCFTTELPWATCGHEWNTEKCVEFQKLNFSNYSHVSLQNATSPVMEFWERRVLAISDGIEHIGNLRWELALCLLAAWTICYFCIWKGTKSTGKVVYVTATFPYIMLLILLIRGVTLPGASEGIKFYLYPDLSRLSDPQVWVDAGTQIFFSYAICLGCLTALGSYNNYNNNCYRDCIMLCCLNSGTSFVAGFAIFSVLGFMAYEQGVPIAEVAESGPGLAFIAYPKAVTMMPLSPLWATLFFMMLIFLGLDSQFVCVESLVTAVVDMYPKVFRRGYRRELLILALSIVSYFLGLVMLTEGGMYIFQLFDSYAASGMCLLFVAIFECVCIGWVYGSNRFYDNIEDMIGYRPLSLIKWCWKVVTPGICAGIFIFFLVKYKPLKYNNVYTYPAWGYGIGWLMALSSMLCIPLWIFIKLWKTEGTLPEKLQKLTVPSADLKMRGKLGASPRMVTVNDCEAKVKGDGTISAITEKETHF
Chain of GABA transporter (Rattus norvegicus) (P48056 whole entry, looked up): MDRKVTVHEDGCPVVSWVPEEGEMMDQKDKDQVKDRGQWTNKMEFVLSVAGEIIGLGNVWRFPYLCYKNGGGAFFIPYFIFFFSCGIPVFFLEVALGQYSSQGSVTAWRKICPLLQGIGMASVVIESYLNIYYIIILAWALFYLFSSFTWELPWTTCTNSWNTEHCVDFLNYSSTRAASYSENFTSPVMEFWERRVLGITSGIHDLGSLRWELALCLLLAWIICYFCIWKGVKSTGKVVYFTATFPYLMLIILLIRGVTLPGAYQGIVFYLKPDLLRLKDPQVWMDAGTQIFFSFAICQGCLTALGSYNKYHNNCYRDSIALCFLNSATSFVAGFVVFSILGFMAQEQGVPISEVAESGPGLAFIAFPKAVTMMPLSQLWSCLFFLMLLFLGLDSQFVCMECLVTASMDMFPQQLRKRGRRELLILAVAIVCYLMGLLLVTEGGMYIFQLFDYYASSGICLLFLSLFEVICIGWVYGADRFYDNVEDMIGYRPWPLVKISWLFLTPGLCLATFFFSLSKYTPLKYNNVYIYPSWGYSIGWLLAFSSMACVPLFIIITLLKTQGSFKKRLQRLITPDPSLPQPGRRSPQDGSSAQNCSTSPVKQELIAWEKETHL

[3] = biological target: T1, GABA-A receptor; anion channel (Rattus norvegicus); conditions: Membrane, 0.01 uM
Description: Percent displacement of [3H]GABA at Gamma-aminobutyric acid receptor of rat brain membranes at 0.01 uM

Compound: O=C(O)C1CCCC2NCCCC21 (cis isomer)
- Displacement [1]: 17%
- inhibition [2]: 20%

Compound: NCc1cc(O)no1
- Displacement [3]: 86%

Compound: NCCCC(=O)O
- Displacement [3]: 48%

Compound: O=C(O)C1CCCC2NCCCC21 (stereo in doubt)
- Displacement [1]: < 5%
- inhibition [2]: < 1%
